This note sets out measurements from US20220002373A1, “SINGLE-CHAIN INSULIN ANALOGUES WITH POLY-ALANINE C-DOMAIN SUB-SEGMENTS” (CASE WESTERN RESERVE UNIVERSITY, priority 2018, published 2022).

The subject of the assay is Sprague-Dawley rats made diabetic with streptozotocin. Kind of assay: Pharmacodynamics after subcutaneous injection in a rat model of diabetes mellitus (blood-glucose concentration over time). Type of assay: in vivo. The following applies: dose equivalent in nanomoles to 15 μg insulin lispro per 300-gram rat, relative to insulin lispro, FIG. 6.

Experimental: The dose was 15 μg of insulin lispro per 300-gram rat; doses of the SCIs were equivalent in units of nanomoles per 300-gram rat (i.e., micrograms corrected for respective molecular masses).

On to “SCI-4: 57-residue single-chain insulin analogue, C domain EAAAAA, substitutions His^A8, Glu^A14, Asp^B28, Pro^B29; expressed in Pichia pastoris (FVNQHLCGSHLVEALYLVCGERGFFYTDPTEAAAAAGIVEQCCHSICSLEQLENYCN)”, for which the “integrated potency (area over the curve)” value is “essentially identical to that of insulin lispro”, the “offset of action / duration of action (tail of insulin action)” value is listed as “essentially identical to that of insulin lispro” and the onset of action result is “essentially identical to that of insulin lispro”.
